# Assay results published in article PMC3362798 (Bioorganic & medicinal chemistry letters, 2012).
# Read-outs that look alike come from different tables or passages of the source.
# Assays:
# [1] = biological target: T1, NPY Y2 receptor (Homo sapiens, UniProt P49146); test: cAMP biosensor assay, NPY Y2 receptor antagonism; type: cell-based; details: for fold increase in potency compared to SF-11: more potent than SF-11
# T1 sequence (P49146 1-381): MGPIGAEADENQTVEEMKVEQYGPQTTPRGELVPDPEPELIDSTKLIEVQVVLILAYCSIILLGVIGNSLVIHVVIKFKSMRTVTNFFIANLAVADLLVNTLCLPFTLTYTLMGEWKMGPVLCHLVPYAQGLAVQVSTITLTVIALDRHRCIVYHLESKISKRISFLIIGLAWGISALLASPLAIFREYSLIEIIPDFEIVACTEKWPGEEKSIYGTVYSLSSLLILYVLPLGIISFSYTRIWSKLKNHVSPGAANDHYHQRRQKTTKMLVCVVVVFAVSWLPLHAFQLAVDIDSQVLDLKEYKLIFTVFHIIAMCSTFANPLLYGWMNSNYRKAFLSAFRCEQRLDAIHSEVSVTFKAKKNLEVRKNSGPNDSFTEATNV
# [2] = system: NPY Y1 and 38 off-target receptors, including GPCRs, transporters and ion-channels; details: cited from earlier work
# [3] = cited from earlier work
# [4] = system: mice; details: intracerebroventricular (icv) administration; cited from earlier work
# [5] = system: rats; details: intracerebroventricular (icv) administration; cited from earlier work
# [6] = system: NPY Y2; details: NPY Y2 antagonist; cited from earlier work
smiles,measurement,setting,value
CCN(CC)S(=O)(=O)c1cccc(OC(=O)N2CCC(C(O)(c3ccccc3)c3ccccc3)CC2)c1 [Compound 65],NPY Y2 antagonist activity (in words),[1],no activity
CCOC(=O)c1cccc(NC(=S)N2CCC(C(O)(c3ccccc3)c3ccccc3)CC2)c1 [Compound 22],NPY Y2 antagonist activity (in words),[1],partial antagonism
"CCOc1ccc(NC(=S)N2CCC(C(O)(c3ccccc3)c3ccccc3)CC2)cc1 [SF-11, N-(4-ethoxyphenyl)-4-[hydroxy(diphenyl)methyl]piperidine-1-carbothioamide]",selectivity against NPY Y1 and 38 off-target receptors,[2],selective
same,brain penetration,[3]; HTS hit chemotypes,brain-penetrant
CCN(CC)C(=O)c1cccc(OC(=O)N2CCC(C(O)(c3ccccc3)c3ccccc3)CC2)c1 [Compound 64],NPY Y2 antagonist activity (in words),[1],no activity
CCC(=O)Nc1ccc(OC(=O)N2CCC(C(O)(c3ccccc3)c3ccccc3)CC2)cc1 [Compound 62],NPY Y2 antagonist activity (in words),[1],completely lost the activity
OC(c1ccccc1)(c1ccccc1)C1CCN(C(=S)Nc2ccccc2)CC1 [Compound 1],NPY Y2 antagonist activity (in words),[1],complete loss of activity
OC(c1ccccc1)(c1ccccc1)C1CCN(C(=S)Nc2ccc(C(F)(F)F)cc2Cl)CC1 [Compound 29],NPY Y2 antagonist activity (in words),[1],complete loss of activity
CCN(CC)c1ccc(NC(=S)N2CCC(C(O)(c3ccccc3)c3ccccc3)CC2)cc1 [Compound 8],fold increase in potency compared to SF-11,[1],~3 fold
CCOc1ccc(NC(=S)N2CCC(C(O)(c3ccccc3)c3ccccc3)CC2)c(F)c1 [Compound 30],fold less potent than SF-11,[1]; less potent than SF-11,~7 fold
CCN(CC)C(=O)c1ccc(OC(=O)N2CCC(C(O)(c3ccccc3)c3ccccc3)CC2)cc1 [Compound 60],"fold less potent than N,N-diethyl sulfonamide analogue 54",[1]; compared with 54,18 fold
COC(c1ccccc1)(c1ccccc1)C1CCN(C(=S)Nc2ccc(S(=O)(=O)N(C)C)cc2)CC1 [Compound 35],NPY Y2 antagonist activity (in words),[1],no activity
CS(=O)(=O)Nc1ccc(OC(=O)N2CCC(C(O)(c3ccccc3)c3ccccc3)CC2)cc1 [Compound 63],NPY Y2 antagonist activity (in words),[1],retained the antagonist activity
CN(C)S(=O)(=O)c1ccc(NC(=S)N2CCC(C(O)(c3ccccc3)c3ccccc3)CC2)cc1 [Compound 16],fold increase in potency compared to SF-11,[1],10 fold
CCOc1ccc(NC(=S)N2CCC(C(O)(c3ccccc3)c3ccccc3)CC2)c(C)c1 [Compound 27],NPY Y2 antagonist activity (in words),[1],complete loss of activity
N=C(N)NCCC[C@H](NC(=O)CC1(CC(=O)N2CCN(C3c4ccccc4NC(=O)c4ccccc43)CC2)CCCC1)C(=O)NCCn1c(=O)n(-c2ccccc2)n(-c2ccccc2)c1=O (stereo partly shown) [BIIE0246],antidepressant-like effects,[4],induced antidepressant-like effects
same,ethanol consumption,[5],decreased ethanol consumption
same,IC50,[6],3.3 nM
same,brain penetration,[3]; BIIE0246,poor brain penetration
CCOc1ccc(NC(=S)N2CCC(C(O)(c3ccccc3)c3ccccc3)CC2)c(C(F)(F)F)c1 [Compound 28],NPY Y2 antagonist activity (in words),[1],complete loss of activity
CCOc1ccc(NC(=S)N2CCC(C(O)(c3ccccc3)C3CCCCC3)CC2)cc1 (stereo not shown) [Compound 38],NPY Y2 antagonist activity (in words),[1],complete loss of activity
COc1cccc(-c2nc(-c3ccc(NC(=O)Cc4ccccc4OC)cc3)no2)c1 [SF-31],selectivity against NPY Y1 and 38 off-target receptors,[2],selective
same,brain penetration,[3]; HTS hit chemotypes,brain-penetrant
CC(=O)Nc1ccc(OC(=O)N2CCC(C(O)(c3ccccc3)c3ccccc3)CC2)cc1 [Compound 61],NPY Y2 antagonist activity (in words),[1],completely lost the activity
CCN(CC)C(=O)c1ccc(NC(=S)N2CCC(C(O)(c3ccccc3)c3ccccc3)CC2)cc1 [Compound 15],"fold more potent than N,N-dimethylamide analogue 14",[1]; compared with 14,4 fold
Cc1ccc(S(=O)(=O)C(c2ccccc2)c2c(C)noc2C)cc1 (stereo not shown) [SF-41],selectivity against NPY Y1 and 38 off-target receptors,[2],selective
same,brain penetration,[3]; HTS hit chemotypes,brain-penetrant
Cc1ccc(C)c(NS(=O)(=O)c2cc(C(=O)Nc3ccccc3-c3ccccc3)ccc2C)c1 [SF-21],selectivity against NPY Y1 and 38 off-target receptors,[2],selective
same,brain penetration,[3]; HTS hit chemotypes,brain-penetrant
CCOc1ccc(NC(=S)N2CCN(C(c3ccccc3)c3ccccc3)CC2)cc1 [Compound 36],NPY Y2 antagonist activity (in words),[1],retained the activity
CN(C)S(=O)(=O)c1ccc(NC(=S)N2CCN(C3c4ccccc4CCc4ccccc43)CC2)cc1 [Compound 45],NPY Y2 antagonist activity (in words),[1],inactive
